Assay results as given in patent US20220348564A1, “PHENYL-[1,3]DIOXOLO[4,5-C]PYRIDINYL-PHENYL-, PHENYL-[1,3]DIOXOLO[4,5-C]PYRIDINYL-HETEROARYL-, OR PHENYL-(1,3)DIOXO[4,5-C]PYRIDINYL-PIPERIDINYL-METHYL-OXETANYLMETHYL-1H-BENZO[D]IMIDAZOLE-CARBOXYLIC ACID DERIVATIVES AND METHODS OF USING SAME” (Eccogene (Shanghai) Co., Ltd., priority 2021, published 2022).

These compounds were tested against T1, human GLP-1 (Homo sapiens, UniProt P43220) (assay: h-GLP-1 activity assay (Cisbio cAMP Gs dynamic kit, HTRF)). Details: HEK293 cells with stable expression of human GLP-1, relative EC50, 10 nM human GLP-1 = 100% response.
T1 construct: expressed in transfected cells
T1 sequence (P43220 24-463): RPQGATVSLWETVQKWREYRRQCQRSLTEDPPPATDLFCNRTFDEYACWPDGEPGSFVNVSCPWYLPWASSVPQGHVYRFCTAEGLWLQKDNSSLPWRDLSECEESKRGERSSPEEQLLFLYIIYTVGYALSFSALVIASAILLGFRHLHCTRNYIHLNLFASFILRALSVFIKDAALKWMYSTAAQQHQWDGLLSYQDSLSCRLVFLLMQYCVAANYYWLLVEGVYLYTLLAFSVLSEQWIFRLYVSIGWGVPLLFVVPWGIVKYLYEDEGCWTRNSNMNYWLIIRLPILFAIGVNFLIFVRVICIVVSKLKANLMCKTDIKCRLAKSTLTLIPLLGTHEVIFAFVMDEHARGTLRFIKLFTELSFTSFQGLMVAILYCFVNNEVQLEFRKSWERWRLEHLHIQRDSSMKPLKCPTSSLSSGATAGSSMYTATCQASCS
Format: cell-based
Method: Human GLP-1 agonizing activity was detected in HEK293 cells with stable expression of human GLP-1 by Cisbio cAMP Gs dynamic kit (Catalog #62AM4PEC) according to manufacturer's protocol. Briefly, cells were collected and resuspended in assay buffer containing 0.1% BSA and 0.5 mM of IBMX at concentration to 2.5×10^5 cells/mL. Two μL 5× compound solution and 8 μL cell suspension were added to each well of low-volume 384 white assay plate. After 30 min incubation at 37° C., 5 μL cAMP-d2 working solution and 5 μL anti-cAMP antibody-cryptate were added to each well, and incubate at room temperature for 1 hr. Series dilution of cAMP was used as standard. Human GLP-1 (7-37) was used as positive control and 10 nM human GLP-1 was set as 100% response. HTRF signals were read at 665 and 615 nm with EnVision plate reader and calculated cAMP concentration by intrapolation to the standard curve. The EC50 value of the tested compounds was calculated by fitting the dose response curve using a 4-parameter non-linear regression routine and relative EC50 was presented in Table S.

EC50 [nM]	SMILES
> 100	C[C@@]1(c2ccc(Cl)cn2)Oc2cccc([C@H]3CC[C@@H](Cc4nc5ccc(C(=O)O)cc5n4C[C@@H]4CCO4)OC3)c2O1 (single isomer, unassigned) [Compound 102]
> 100	C[C@@]1(c2ccc(Cl)cn2)Oc2cccc(N3CC4C(Cc5nc6ccc(C(=O)O)cc6n5C[C@@H]5CCO5)C4C3)c2O1 (single isomer, unassigned) [Compound 73]
20 to 100	C[C@]1(c2ccc(Cl)cc2F)Oc2cccc(C3=CC[C@@H](Cc4nc5ccc(C(=O)O)cc5n4C[C@@H]4CCO4)OC3)c2O1 (single isomer, unassigned) [Compound 101]
< 20	CC1(c2ccc(Cl)cc2F)Oc2cccc(C3CCC(Cc4nc5ccc(C(=O)O)cc5n4C[C@@H]4CCO4)OC3)c2O1 (mixture of isomers) [Compound 56, 2-((5-(2-(4-chloro-2-fluorophenyl)-2-methylbenzo[d][1,3]dioxol-4-yl)tetrahydro-2H-pyran-2-yl)methyl)-1-(((S)-oxetan-2-yl)methyl)-1H-benzo[d]imidazole-6-carboxylic acid]
< 20	N#Cc1ccc(COc2cccc([C@H]3CC[C@@H](Cc4nc5ccc(C(=O)O)cc5n4C[C@@H]4CCO4)OC3)n2)c(F)c1 (single isomer, unassigned) [Compound 33]
< 20	CC1(c2ccc(Cl)cc2F)Oc2cccc(-c3cnc(Cc4nc5ccc(C(=O)O)cc5n4C[C@@H]4CCO4)nc3)c2O1 (mixture of isomers) [Compound 17, 2-((5-(2-(4-chloro-2-fluorophenyl)-2-methylbenzo[d][1,3]dioxol-4-yl)pyrimidin-2-yl)methyl)-1-(((S)-oxetan-2-yl)methyl)-1H-benzo[d]imidazole-6-carboxylic acid]
20 to 100	CC1(c2ccc(Cl)cc2F)Oc2cccc(-c3ncc(Cc4nc5ccc(C(=O)O)cc5n4C[C@@H]4CCO4)cn3)c2O1 (mixture of isomers) [Compound 21, 2-((2-(2-(4-chloro-2-fluorophenyl)-2-methylbenzo[d][1,3]dioxol-4-yl)pyrimidin-5-yl)methyl)-1-(((S)-oxetan-2-yl)methyl)-1H-benzo[d]imidazole-6-carboxylic acid]
20 to 100	CC1(c2ccc(Cl)cc2F)Oc2c(cccc2C2CCN(Cc3nc4ccc(C(=O)O)cc4n3C[C@@H]3CCO3)CC2)NC1=O (mixture of isomers) [Compound 68, 2-((4-(2-(4-chloro-2-fluorophenyl)-2-methyl-3-oxo-3,4-dihydro-2H-benzo[b][1,4]oxazin-8-yl)piperidin-1-yl)methyl)-1-(((S)-oxetan-2-yl)methyl)-1H-benzo[d]imidazole-6-carboxylic acid]
> 100	CC1(c2ccc(Cl)cn2)COc2cccc(C3CCN(Cc4nc5ccc(C(=O)O)cc5n4C[C@@H]4CCO4)CC3)c2OC1 (mixture of isomers) [Compound 86, 2-((4-(3-(5-chloropyridin-2-yl)-3-methyl-3,4-dihydro-2H-benzo[b][1,4]dioxepin-6-yl)piperidin-l-yl)methyl)-1-(((S)-oxetan-2-yl)methyl)-1H-benzo[d]imidazole-6-carboxylic acid]
< 20	C[C@]1(c2ccc(Cl)cn2)Oc2cccc(-c3ccc(Cc4nc5ccc(C(=O)O)cc5n4C[C@@H]4CCO4)cc3)c2O1 (single isomer, unassigned) [Compound 40]
> 100	O=C(O)c1ccc2nc(C[C@@H]3CC[C@@H](c4cccc(OCc5ccc(Cl)cc5F)n4)CO3)n(Cc3cncs3)c2c1 (single isomer, unassigned) [Compound 29]
> 100	CN1C(=O)C(c2ccc(Cl)cc2F)Oc2c(C3CCN(Cc4nc5ccc(C(=O)O)cc5n4C[C@@H]4CCO4)CC3)cccc21 (mixture of isomers) [Compound 105, 2-((4-(2-(4-chloro-2-fluorophenyl)-4-methyl-3-oxo-3,4-dihydro-2H-benzo[b][1,4]oxazin-8-yl)piperidin-1-yl)methyl)-1-(((S)-oxetan-2-yl)methyl)-1H-benzo[d]imidazole-6-carboxylic acid]
< 20	N#Cc1ccc(COc2cccc([C@@H]3CC[C@@H](Cc4nc5ccc(C(=O)O)cc5n4C[C@@H]4CCO4)OC3)n2)c(F)c1 (single isomer, unassigned) [Compound 31]
20 to 100	C[C@@]1(c2ccc(Cl)cn2)Oc2cccc(C3(F)CCN(Cc4nc5ccc(C(=O)O)cc5n4C[C@@H]4CCO4)CC3)c2O1 (single isomer, unassigned) [Compound 83]
< 20	N#Cc1ccc(COc2cccc([C@@H]3CC[C@H](Cc4nc5ccc(C(=O)O)cc5n4C[C@@H]4CCO4)OC3)n2)c(F)c1 (single isomer, unassigned) [Compound 32]
> 100	C[C@@]1(c2ccc(Cl)cn2)Oc2cccc(C3CC4CC3CN4Cc3nc4ccc(C(=O)O)cc4n3C[C@@H]3CCO3)c2O1 (single isomer, unassigned) [Compound 74]
< 20	CC1(c2c(F)cc(Cl)cc2F)Oc2cccc(C3=CCC(Cc4nc5ccc(C(=O)O)cc5n4C[C@@H]4CCO4)OC3)c2O1 (mixture of isomers) [Compound 109, 2-((5-(2-(4-chloro-2,6-difluorophenyl)-2-methylbenzo[d][1,3]dioxol-4-yl)-3,6-dihydro-2H-pyran-2-yl)methyl)-1-(((S)-oxetan-2-yl)methyl)-1H-benzo[d]imidazole-6-carboxylic acid]

More lines, now with the values behind:

SMILES	EC50 [nM]
C[C@@]1(c2ccc(Cl)cn2)Oc2cccc(N3CC=C(Cc4nc5ccc(C(=O)O)cc5n4C[C@@H]4CCO4)CC3)c2O1 (single isomer, unassigned) [Compound 77]	< 20
O=C(O)c1ccc2nc(Cc3ccc(-c4cccc5c4NC(=O)C(c4ccc(Cl)cc4F)O5)cc3)n(C[C@@H]3CCO3)c2c1 (mixture of isomers) [Compound 42, 2-(4-(2-(4-chloro-2-fluorophenyl)-3-oxo-3,4-dihydro-2H-benzo[b][1,4]oxazin-5-yl)benzyl)-1-(((S)-oxetan-2-yl)methyl)-1H-benzo[d]imidazole-6-carboxylic acid]	> 100
O=C(O)c1ccc2nc(CN3CCC(c4cccc5c4OC(c4ccc(Cl)cc4F)C(=O)N5)CC3)n(C[C@@H]3CCO3)c2c1 (mixture of isomers) [Compound 104, 2-((4-(2-(4-chloro-2-fluorophenyl)-3-oxo-3,4-dihydro-2H-benzo[b][1,4]oxazin-8-yl)piperidin-1-yl)methyl)-1-(((S)-oxetan-2-yl)methyl)-1H-benzo[d]imidazole-6-carboxylic acid]	20 to 100
C[C@]1(c2ccc(Cl)cn2)Oc2cccc(C3=CC[C@H](Cc4nc5ccc(C(=O)O)cc5n4Cc4cscn4)OC3)c2O1 (single isomer, unassigned) [Compound 114]	20 to 100
C[C@@]1(c2ccc(Cl)cn2)Oc2cccc(C34CCN(Cc5nc6ccc(C(=O)O)cc6n5C[C@@H]5CCO5)CC3C4)c2O1 (single isomer, unassigned) [Compound 72]	< 20
CC1(c2ccc(Cl)cc2F)Oc2cccc(-c3ccc(Cc4nc5ccc(C(=O)O)cc5n4C[C@@H]4CCO4)nc3)c2O1 (mixture of isomers) [Compound 16, 2-((5-(2-(4-chloro-2-fluorophenyl)-2-methylbenzo[d][1,3]dioxol-4-yl)pyridin-2-yl)methyl)-1-(((S)-oxetan-2-yl)methyl)-1H-benzo[d]imidazole-6-carboxylic acid]	< 20
C[C@]1(c2ccc(Cl)cn2)Oc2cccc(C3=CC[C@H](Cc4nc5ccc(C(=O)O)cc5n4Cc4cncs4)OC3)c2O1 (single isomer, unassigned) [Compound 112]	< 20
CC1(c2ccc(Cl)cc2F)Oc2cccc(-c3ccn(Cc4nc5ccc(C(=O)O)cc5n4C[C@@H]4CCO4)c(=O)c3)c2O1 (mixture of isomers) [Compound 22, 2-((4-(2-(4-chloro-2-fluorophenyl)-2-methylbenzo[d][1,3]dioxol-4-yl)-2-oxopyridin-1(2H)-yl)methyl)-1-(((S)-oxetan-2-yl)methyl)-1H-benzo[d]imidazole-6-carboxylic acid]	20 to 100
CC1(c2ccc(C(F)(F)F)cc2F)Oc2cccc(-c3ccc(Cc4nc5ccc(C(=O)O)cc5n4C[C@@H]4CCO4)cc3)c2O1 (mixture of isomers) [Compound 26, 2-(4-(2-(2-fluoro-4-(trifluoromethyl)phenyl)-2-methylbenzo[d][1,3]dioxol-4-yl)benzyl)-1-(((S)-oxetan-2-yl)methyl)-1H-benzo[d]imidazole-6-carboxylic acid]	< 20
C[C@]1(c2ccc(Cl)cn2)Oc2cccc(C3=CC[C@@H](Cc4nc5ccc(C(=O)O)cc5n4Cc4cncs4)OC3)c2O1 (single isomer, unassigned) [Compound 113]	20 to 100
C[C@@]1(c2ccc(Cl)cc2F)Oc2cccc(C3=CC[C@H](Cc4nc5ccc(C(=O)O)cc5n4C[C@@H]4CCO4)OC3)c2O1 (single isomer, unassigned) [Compound 106]	> 100
O=C(O)c1ccc2nc(Cc3cc(F)c(-c4cccc5c4OC(c4ccc(Cl)cc4F)CO5)cc3F)n(C[C@@H]3CCO3)c2c1 (mixture of isomers) [Compound 60, 2-(4-(3-(4-chloro-2-fluorophenyl)-2,3-dihydrobenzo[b][1,4]dioxin-5-yl)-2,5-difluorobenzyl)-1-(((S)-oxetan-2-yl)methyl)-1H-benzo[d]imidazole-6-carboxylic acid]	< 20
N#Cc1ccc(COc2cccc(N3CCC(Oc4nc5ccc(C(=O)O)cc5n4C[C@@H]4CCO4)CC3)n2)c(F)c1 [Compound 80, (S)-2-((1-(6-((4-cyano-2-fluorobenzyl)oxy)pyridin-2-yl)piperidin-4-yl)oxy)-1-(oxetan-2-ylmethyl)-1H-benzo[d]imidazole-6-carboxylic acid]	> 100
